IC50, EC50 and DC50 data for 18 compounds are collected here from ChEMBL document CHEMBL5505953, “Facilitating the development of molecular glues: Opportunities from serendipity and rational design” (Eur J Med Chem, 2024).

One test has as its system LN-229. The test can be described thus: cells. The note with it: Homo sapiens, LN-229, 144 h.
The subject of another test is MCF7. The test can be described thus: cells. The following applies: Homo sapiens, MCF7, 48 h.
For a further test, the system named is NCI-H1563. The experiment in a line: cells. The note with it: Homo sapiens, NCI-H1563, 48 h.
For a further test, the system named is PC-3. The experiment in a line: cells. The following applies: Homo sapiens, PC-3, 48 h.
Another test deals with HeLa. The test can be described thus: cells. The following applies: Homo sapiens, 48 h.
In another test the test system is NCI-H2122. The experiment in a line: cells. The note with it: Homo sapiens, NCI-H2122, 48 h.
In test [1] the test system is A549. The test can be described thus: cells. The note with it: Homo sapiens, A549, 48 h.
The target in a further test is RNA-binding protein 39 (Homo sapiens, UniProt Q14498).
In test [2] the target is B-cell lymphoma 6 protein (Homo sapiens, UniProt P41182).
Test [3] concerns the target Protein cereblon/Zinc finger protein Helios (Homo sapiens, UniProt Q96SW2+Q9UKS7). The following applies: hek293t.
The target of another test is Cyclin-K (Homo sapiens, UniProt O75909). The note with it: hct-116.
For test [4], the system named is A549. The test can be described thus: cells. The note with it: Homo sapiens, A549, 72 h.
The next test concerns HCT-116. The test can be described thus: cells. The note with it: Homo sapiens, HCT-116, 72 h.
Another test has as its target Estrogen receptor (Homo sapiens, UniProt P03372).
Test [5] addresses Protein cereblon/Tyrosine-protein kinase BTK (Homo sapiens, UniProt Q06187+Q96SW2). The note with it: ramos.
Test [6] addresses Cereblon/Casein kinase I alpha (Homo sapiens, UniProt P48729+Q96SW2). The note with it: molm-13.
Test [7] deals with Cystic fibrosis transmembrane conductance regulator (Homo sapiens, UniProt P13569).
Another test deals with MDA-MB-231. The experiment in a line: cells. The note with it: Homo sapiens, MDA-MB-231, 48 h.
In another test the test system is HCC38. The experiment in a line: cells. The following applies: Homo sapiens, HCC38, 48 h.
For another test, the target named is CDK12/Cyclin K (Homo sapiens, UniProt Q9NYV4).
Test [8] deals with 14-3-3 protein beta/alpha (Homo sapiens, UniProt P31946).
In the next test the target is Protein cereblon (Homo sapiens, UniProt Q96SW2).

Molecules are shown by their SMILES.

Chain of CDK12/Cyclin K (O75909 whole entry): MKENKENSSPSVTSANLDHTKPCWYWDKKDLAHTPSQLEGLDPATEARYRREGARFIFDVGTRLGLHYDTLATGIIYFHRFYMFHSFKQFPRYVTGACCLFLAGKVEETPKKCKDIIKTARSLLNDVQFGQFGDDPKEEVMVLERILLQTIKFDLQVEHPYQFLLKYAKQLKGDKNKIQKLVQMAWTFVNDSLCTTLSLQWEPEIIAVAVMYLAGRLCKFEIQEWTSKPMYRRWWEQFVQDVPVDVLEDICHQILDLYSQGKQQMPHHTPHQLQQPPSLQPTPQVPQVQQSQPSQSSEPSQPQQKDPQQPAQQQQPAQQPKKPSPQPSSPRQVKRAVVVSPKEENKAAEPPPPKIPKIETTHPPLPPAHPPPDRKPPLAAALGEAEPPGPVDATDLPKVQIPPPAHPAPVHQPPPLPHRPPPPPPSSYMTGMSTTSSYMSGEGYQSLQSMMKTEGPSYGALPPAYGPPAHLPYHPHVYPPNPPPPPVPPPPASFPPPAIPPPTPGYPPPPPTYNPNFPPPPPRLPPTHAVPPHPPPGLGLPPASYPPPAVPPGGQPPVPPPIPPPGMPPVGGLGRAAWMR
Chain of CDK12/Cyclin K (Q9NYV4 whole entry): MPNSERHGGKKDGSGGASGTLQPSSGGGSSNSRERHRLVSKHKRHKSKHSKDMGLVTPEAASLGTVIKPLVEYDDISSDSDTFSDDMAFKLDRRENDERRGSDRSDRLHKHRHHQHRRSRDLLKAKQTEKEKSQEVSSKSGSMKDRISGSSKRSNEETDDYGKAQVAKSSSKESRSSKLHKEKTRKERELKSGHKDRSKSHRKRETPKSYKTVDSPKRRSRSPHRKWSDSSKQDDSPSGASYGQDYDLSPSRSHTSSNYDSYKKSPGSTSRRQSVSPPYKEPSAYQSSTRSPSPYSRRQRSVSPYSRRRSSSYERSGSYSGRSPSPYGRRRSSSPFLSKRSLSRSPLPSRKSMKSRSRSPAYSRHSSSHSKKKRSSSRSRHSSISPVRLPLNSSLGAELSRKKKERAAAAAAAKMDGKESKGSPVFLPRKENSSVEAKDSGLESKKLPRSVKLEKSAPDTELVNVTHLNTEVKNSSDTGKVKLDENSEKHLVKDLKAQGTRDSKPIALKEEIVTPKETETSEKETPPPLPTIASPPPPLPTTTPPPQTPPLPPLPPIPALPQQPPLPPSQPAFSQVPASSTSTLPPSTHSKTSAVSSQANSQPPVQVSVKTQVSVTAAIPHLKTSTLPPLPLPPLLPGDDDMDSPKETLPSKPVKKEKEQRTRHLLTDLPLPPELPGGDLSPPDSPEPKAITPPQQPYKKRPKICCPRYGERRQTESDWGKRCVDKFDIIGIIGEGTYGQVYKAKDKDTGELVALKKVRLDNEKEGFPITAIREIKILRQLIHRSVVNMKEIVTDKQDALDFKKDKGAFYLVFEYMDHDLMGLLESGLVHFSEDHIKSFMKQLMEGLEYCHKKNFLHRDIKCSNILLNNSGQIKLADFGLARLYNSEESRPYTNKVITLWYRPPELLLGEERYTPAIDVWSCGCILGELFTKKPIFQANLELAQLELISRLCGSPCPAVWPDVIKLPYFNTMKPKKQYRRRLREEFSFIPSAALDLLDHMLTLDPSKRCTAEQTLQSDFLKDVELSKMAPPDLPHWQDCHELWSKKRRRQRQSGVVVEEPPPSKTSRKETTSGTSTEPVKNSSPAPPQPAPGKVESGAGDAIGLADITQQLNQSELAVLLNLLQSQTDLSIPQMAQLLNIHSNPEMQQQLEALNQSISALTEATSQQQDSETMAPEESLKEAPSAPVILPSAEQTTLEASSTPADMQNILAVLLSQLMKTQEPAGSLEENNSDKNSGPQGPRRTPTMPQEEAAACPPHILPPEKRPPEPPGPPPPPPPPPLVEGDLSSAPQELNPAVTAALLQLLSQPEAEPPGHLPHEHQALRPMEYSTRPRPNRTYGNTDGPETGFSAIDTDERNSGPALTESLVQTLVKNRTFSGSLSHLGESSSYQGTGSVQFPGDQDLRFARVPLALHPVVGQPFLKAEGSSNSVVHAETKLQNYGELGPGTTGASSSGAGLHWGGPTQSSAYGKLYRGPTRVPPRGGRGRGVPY
Chain of Protein cereblon/Zinc finger protein Helios (Q96SW2 whole entry): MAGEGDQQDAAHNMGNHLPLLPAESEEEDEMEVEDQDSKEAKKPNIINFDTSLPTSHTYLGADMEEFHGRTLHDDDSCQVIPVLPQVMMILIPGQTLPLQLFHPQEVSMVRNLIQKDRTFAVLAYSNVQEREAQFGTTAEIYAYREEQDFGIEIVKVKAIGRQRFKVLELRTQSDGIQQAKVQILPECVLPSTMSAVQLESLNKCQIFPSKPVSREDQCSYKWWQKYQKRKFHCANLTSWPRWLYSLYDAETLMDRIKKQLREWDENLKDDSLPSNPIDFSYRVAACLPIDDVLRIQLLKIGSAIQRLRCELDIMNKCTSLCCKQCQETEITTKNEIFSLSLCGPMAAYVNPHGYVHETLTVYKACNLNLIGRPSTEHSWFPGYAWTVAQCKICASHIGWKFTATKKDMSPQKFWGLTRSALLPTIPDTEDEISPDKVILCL
Chain of Protein cereblon/Zinc finger protein Helios (Q9UKS7 whole entry): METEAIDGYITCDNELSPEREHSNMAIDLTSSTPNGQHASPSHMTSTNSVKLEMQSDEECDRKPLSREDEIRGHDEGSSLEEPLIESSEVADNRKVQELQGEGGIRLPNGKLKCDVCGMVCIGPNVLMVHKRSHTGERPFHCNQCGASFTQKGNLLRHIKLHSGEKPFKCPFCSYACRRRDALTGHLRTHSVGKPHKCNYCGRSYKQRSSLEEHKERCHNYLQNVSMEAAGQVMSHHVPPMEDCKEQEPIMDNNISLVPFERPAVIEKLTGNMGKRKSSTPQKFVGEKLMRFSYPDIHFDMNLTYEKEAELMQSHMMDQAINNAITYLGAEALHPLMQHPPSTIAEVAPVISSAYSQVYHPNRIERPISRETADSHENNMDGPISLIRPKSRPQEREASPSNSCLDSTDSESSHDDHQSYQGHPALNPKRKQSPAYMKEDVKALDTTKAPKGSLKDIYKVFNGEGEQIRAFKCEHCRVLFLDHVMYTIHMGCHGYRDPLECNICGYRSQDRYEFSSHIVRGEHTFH
Chain of 14-3-3 protein beta/alpha (P31946 whole entry): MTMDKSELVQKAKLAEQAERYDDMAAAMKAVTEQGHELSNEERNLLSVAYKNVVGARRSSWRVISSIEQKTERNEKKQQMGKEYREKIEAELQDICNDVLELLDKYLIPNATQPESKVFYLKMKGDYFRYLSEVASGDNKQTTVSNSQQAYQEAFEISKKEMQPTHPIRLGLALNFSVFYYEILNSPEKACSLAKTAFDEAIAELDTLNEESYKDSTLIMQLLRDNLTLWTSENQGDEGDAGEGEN
Chain of Protein cereblon/Tyrosine-protein kinase BTK (Q06187 whole entry): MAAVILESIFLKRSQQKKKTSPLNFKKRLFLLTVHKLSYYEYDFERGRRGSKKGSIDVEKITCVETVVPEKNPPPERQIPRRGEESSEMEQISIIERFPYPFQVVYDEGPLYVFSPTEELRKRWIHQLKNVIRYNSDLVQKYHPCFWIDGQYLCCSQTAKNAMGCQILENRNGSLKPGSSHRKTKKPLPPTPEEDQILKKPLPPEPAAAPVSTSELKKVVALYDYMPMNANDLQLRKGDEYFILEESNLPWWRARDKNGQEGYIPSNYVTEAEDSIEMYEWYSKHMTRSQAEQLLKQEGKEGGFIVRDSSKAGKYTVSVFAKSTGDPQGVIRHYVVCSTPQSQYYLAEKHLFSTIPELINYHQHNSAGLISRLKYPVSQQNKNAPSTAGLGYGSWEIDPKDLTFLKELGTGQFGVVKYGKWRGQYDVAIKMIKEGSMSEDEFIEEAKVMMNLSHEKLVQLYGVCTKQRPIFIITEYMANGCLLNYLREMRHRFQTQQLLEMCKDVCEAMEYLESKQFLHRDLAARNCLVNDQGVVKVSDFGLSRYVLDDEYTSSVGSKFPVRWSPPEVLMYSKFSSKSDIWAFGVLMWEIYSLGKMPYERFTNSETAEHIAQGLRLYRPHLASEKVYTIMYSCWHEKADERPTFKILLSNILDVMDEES
Chain of Protein cereblon/Tyrosine-protein kinase BTK (Q96SW2 whole entry): as the sequence (Q96SW2 whole entry) above
Chain of Cereblon/Casein kinase I alpha (P48729 whole entry): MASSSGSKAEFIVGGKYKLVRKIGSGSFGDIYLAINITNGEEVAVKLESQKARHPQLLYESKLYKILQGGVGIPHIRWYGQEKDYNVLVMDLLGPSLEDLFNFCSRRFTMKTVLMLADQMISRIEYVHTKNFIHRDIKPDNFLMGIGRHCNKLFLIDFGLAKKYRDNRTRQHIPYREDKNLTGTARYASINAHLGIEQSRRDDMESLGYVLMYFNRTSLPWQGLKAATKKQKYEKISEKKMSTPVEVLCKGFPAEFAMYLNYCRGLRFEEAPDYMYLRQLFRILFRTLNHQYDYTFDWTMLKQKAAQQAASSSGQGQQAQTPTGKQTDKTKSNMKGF
Chain of Cereblon/Casein kinase I alpha (Q96SW2 whole entry): as the sequence (Q96SW2 whole entry) above
Chain of Cyclin-K (O75909 whole entry): as the sequence (O75909 whole entry) above
Chain of Protein cereblon (Q96SW2 whole entry): as the sequence (Q96SW2 whole entry) above
Chain of RNA-binding protein 39 (Q14498 whole entry): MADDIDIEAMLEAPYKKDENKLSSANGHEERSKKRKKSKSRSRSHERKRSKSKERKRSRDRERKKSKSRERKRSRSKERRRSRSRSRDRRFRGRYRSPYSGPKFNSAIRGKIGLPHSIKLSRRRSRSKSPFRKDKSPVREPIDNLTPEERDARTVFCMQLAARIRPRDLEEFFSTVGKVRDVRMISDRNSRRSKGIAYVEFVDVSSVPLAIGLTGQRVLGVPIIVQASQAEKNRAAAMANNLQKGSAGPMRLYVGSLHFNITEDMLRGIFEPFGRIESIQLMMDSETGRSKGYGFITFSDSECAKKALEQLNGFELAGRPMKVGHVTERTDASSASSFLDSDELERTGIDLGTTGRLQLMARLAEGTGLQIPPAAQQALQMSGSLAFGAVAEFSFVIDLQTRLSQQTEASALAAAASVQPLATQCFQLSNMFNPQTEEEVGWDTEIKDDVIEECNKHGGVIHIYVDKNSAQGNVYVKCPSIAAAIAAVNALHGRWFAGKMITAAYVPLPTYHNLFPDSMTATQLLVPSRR

As for `O=C(Nc1ccc(Cl)c([N+](=O)[O-])c1)Nc1nc2ccccc2s1`, the IC50 in the test on LN-229 was found to be 2300 nM.

Take `CCN(CC)c1ccc(C2=NNC(=O)CC2C)cc1[N+](=O)[O-]` (stereo unspecified): the 50% effective concentration (EC50) with MCF7, in the test with NCI-H1563, with PC-3, with HeLa, in the test with NCI-H2122 and in the test with A549 [1] was 10 nM in each case.

Consider `Cc1ccc(S(=O)(=O)N/N=C/c2cc(Br)ccc2O)cc1`, for which the half-maximal inhibitory concentration (IC50) at RNA-binding protein 39 turned out to be 400 nM. This lies in the sub-micromolar range.

In test [2], `CNC(=O)COc1cc2cc(Nc3nc(N4C[C@H](C)C[C@H](C)C4)ncc3Cl)ccc2n(C)c1=O` returned an IC50 of less than 3 nM.

As for `O=C1CCC(N2Cc3cc(C4CCN(Cc5ccccc5)CC4)ccc3C2=O)C(=O)N1` (stereo unspecified), the DC50 in test [3] came to 4000 nM.

Consider `O=C1CCC(N2Cc3cc(C4CCNCC4)ccc3C2=O)C(=O)N1` (stereo unspecified), for which the DC50 in test [3] was more than 50000 nM.

As to `Cc1cccc(Nc2nc(CC(=O)Nc3ncc(C)s3)cs2)n1`, the DC50 on Cyclin-K was determined as 132 nM. Also, the concentration for half-maximal inhibition (IC50) in the test with A549 [4] and in the test with HCT-116 was 1300 nM each time.

As to `O=C(C1=C(O)C(=O)N(c2ccccc2O)C1c1ccc([N+](=O)[O-])cc1)c1ccccc1` (stereo unspecified), the midpoint of inhibition at Estrogen receptor, the IC50, lay at 75000 nM.

With `Nc1ncnc2c1c(-c1ccc(Oc3ccccc3)cc1)nn2[C@H]1CCCN(C(=O)CCCCCCCCNc2ccc3c(c2)C(=O)N(C2CCC(=O)NC2=O)C3=O)C1` (stereo partly specified), the DC50 in test [5] stood at 50 nM.

Consider `O=C1CCC(N2Cc3c(CNC(=O)c4ccc(F)cc4)cccc3C2=O)C(=O)N1` (stereo unspecified), for which the DC50 in [6] was determined as 11 nM.

Consider `N=C(N)NCCC[C@@H]1NCc2ccccc2Sc2ccccc2CNC(=O)[C@H](Cc2ccc(O)cc2)NC(=O)[C@H](CCCN)NC1=O`, for which inhibition in test [7] was half-maximal at 36100 nM (IC50).

Turning to `O=C(/C=C/C=C/C=C/C1CCCCC1)NC1=C[C@@](O)(/C=C/C=C/C=C/C(=O)NC2=C(O)CCC2=O)[C@@H]2O[C@@H]2C1=O`, the EC50 was found to be 13800 nM with MDA-MB-231 and 4500 nM with HCC38.

In the test on LN-229, `N#Cc1ccc2nc(NC(=O)Nc3cccc(Cl)c3)sc2c1` registered a concentration for half-maximal inhibition (IC50) of 850 nM.

In turn, `O=C(CSc1nnc2c(n1)[nH]c1ccccc12)Nc1ccc(Cl)cn1` gave an IC50 on CDK12/Cyclin K of 400 nM.

The compound `O=C(CSc1nc2ccccc2[nH]1)Nc1ccc(Cl)cn1` came in with an IC50 on CDK12/Cyclin K of 400 nM.

Compound `O=C(COc1ccccc1P(=O)(O)O)NCCc1ccccc1` returned an IC50 in [8] of 5200 nM.

In the case of `Cc1ccc(C(=O)N2CSCC2C(=O)/N=c2/[nH]cc(C)s2)o1` (stereo unspecified), the IC50 on CDK12/Cyclin K worked out at 400 nM.

For `NS(=O)(=O)c1ccc(S(=O)(=O)Nc2cccc3c(Cl)c[nH]c23)cc1`, on Protein cereblon, the IC50 was found to be 360 nM. That is a sub-micromolar value.

What is called IC50 is the midpoint of a concentration-inhibition curve. High values mean weaker potency in that assay, low ones greater potency in that assay. A word on the EC50: it is the concentration at which the effect is half-maximal. A lower EC50 goes with greater potency.
